# According to US7226923B2, “Phthalazinone derivatives” (Hoffman-La Roche Inc., priority 2004, dated 2007):
# Experiments:
# [1] = system: HCT 116 cells; test: CellTiter-Glo assay in HCT 116 cells; format: cell-based, human; details: Homo sapiens, HCT-116, 120 h, 5 days incubation, 30 μM to 0.0015 μM
# In short: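 Cells seeded at 1000/well in RPMI 1640 with 5% FCS, grown 24 h at 37 °C, then treated with 10 concentrations from 30 μM to 0.0015 μM (1:3 dilutions). After 5 days viability was read as ATP-based luminescence (CellTiter-Glo) following 30 min room-temperature equilibration and lysis.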
# [2] = target: T1, Aurora A (Homo sapiens, UniProt O14965); test: IC50 determination for inhibitors of Aurora A (96 MTP-ELISA); format: biochemical; details: His4-tagged full-length Aurora A 250 ng/ml, PKB-GSK2 200 nM, ATP 4 μM, 90 min at room temperature, read-out: IC50 Aurora A kinase inhibition
# T1 construct: C-terminally Histidine4 (His4)-tagged Aurora A full-length protein
# T1 sequence (O14965 1-403): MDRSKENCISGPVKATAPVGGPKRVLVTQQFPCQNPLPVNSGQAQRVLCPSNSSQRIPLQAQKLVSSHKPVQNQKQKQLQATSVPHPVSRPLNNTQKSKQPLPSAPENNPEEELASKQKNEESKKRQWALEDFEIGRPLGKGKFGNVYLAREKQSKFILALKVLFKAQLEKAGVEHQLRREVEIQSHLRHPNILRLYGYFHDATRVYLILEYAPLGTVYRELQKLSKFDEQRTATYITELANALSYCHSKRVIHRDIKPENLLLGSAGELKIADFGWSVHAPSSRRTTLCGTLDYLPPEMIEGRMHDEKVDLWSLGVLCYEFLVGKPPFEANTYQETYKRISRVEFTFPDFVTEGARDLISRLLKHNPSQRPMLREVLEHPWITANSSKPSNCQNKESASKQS
IC50 [1] [nM],IC50 [2] [nM],Structure (SMILES)
100 to 10000,1 to 100,"Cc1cc(Nc2nn(C(C)C)c(=O)c3cc(C(N)=O)ccc23)n[nH]1 [Example N-1, 3-Isopropyl-1-(5-methyl-1H-pyrazol-3-ylamino)-4-oxo-3,4-dihydro-phthalazine-6-carboxylic acid amide]"
100 to 10000,1 to 100,"Cc1cc(Nc2nn(C(C)C)c(=O)c3cc(N(C)CCN4CCOCC4)ccc23)n[nH]1 [Example I-1, 2-Isopropyl-7-[methyl-(2-morpholin-4-yl-ethyl)-amino]-4-(5-methyl-1H-pyrazol-3-ylamino)-2H-phthalazin-1-one]"
100 to 10000,1 to 100,"Cc1cc(Nc2nn(C(C)C)c(=O)c3cc(OCc4ccccn4)ccc23)n[nH]1 [Example G-2, 2-Isopropyl-4-(5-methyl-1H-pyrazol-3-ylamino)-7-(pyridin-2-ylmethoxy)-2H-phthalazin-1-one]"
100 to 10000,1 to 100,"Cc1cc(Nc2nn(C(C)C)c(=O)c3cc(CN4CCOCC4)ccc23)n[nH]1 [Example L-2, 2-Isopropyl-4-(5-methyl-1H-pyrazol-3-ylamino)-7-morpholin-4-ylmethyl-2H-phthalazin-1-one]"
100 to 10000,1 to 100,"COc1ccc2c(Nc3cc(C)[nH]n3)nn(C(C)C)c(=O)c2c1 [Example G-1, 2-Isopropyl-4-(5-methyl-1H-pyrazol-3-ylamino)-7-methoxy-2H-phthalazin-1-one]"
100 to 10000,1 to 100,"COC(=O)c1ccc2c(Nc3cc(C)[nH]n3)nn(C(C)C)c(=O)c2c1 [Example M-8, 3-Isopropyl-1-(5-methyl-1H-pyrazol-3-ylamino)-4-oxo-3,4-dihydro-phthalazine-6-carboxylic acid methyl ester]"
100 to 10000,1 to 100,"Cc1cc(Nc2nn(C(C)C)c(=O)c3cc(N(C)Cc4ccccn4)ccc23)n[nH]1 [Example I-4, 2-Isopropyl-4-(5-methyl-1H-pyrazol-3-ylamino)-7-(methyl-pyridin-2-ylmethyl-amino)-2H-phthalazin-1-one]"
100 to 10000,1 to 100,"Cc1cc(Nc2nn(C(C)C)c(=O)c3cc(OC(F)F)ccc23)n[nH]1 [Example G-7, 7-Difluoromethoxy-2-isopropyl-4-(5-methyl-1H-pyrazol-3-ylamino)-2H-phthalazin-1-one]"
100 to 10000,1 to 100,"CSc1ccc2c(Nc3cc(C)[nH]n3)nn(C(C)C)c(=O)c2c1 [Example H-1, 2-Isopropyl-4-(5-methyl-1H-pyrazol-3-ylamino)-7-methylsulfanyl-2H-phthalazin-1-one]"
100 to 10000,1 to 100,"COc1ccc2c(=O)n(C(C)C)nc(Nc3cc(C)[nH]n3)c2c1 [Example G-9, 2-Isopropyl-6-methoxy-4-(5-methyl-1H-pyrazol-3-ylamino)-2H-phthalazin-1-one]"
100 to 10000,1 to 100,"Cc1cc(Nc2nn(C(C)C)c(=O)c3cc(N(C)Cc4cccnc4)ccc23)n[nH]1 [Example I-3, 2-Isopropyl-4-(5-methyl-1H-pyrazol-3-ylamino)-7-(methyl-pyridin-3-ylmethyl-amino)-2H-phthalazin-1-one]"
100 to 10000,1 to 100,"Cc1cc(Nc2nn(C(C)C)c(=O)c3cc(F)ccc23)n[nH]1 [Example E-2, 7-Fluoro-2-isopropyl-4-(5-methyl-1H-pyrazol-3-ylamino)-2H-phthalazin-1-one]"

# Second part, the compound before the results:
Structure (SMILES),IC50 [1] [nM],IC50 [2] [nM]
"Cc1cc(Nc2nn(-c3ccc(NC(=O)C(C)(C)C)cc3)c(=O)c3ccccc23)n[nH]1 [Example T-3, 2,2-Dimethyl-N-{4-[4-(5-methyl-1H-pyrazol-3-ylamino)-1-oxo-1H-phthalazin-2-yl]-phenyl}-propionamide]",100 to 10000,100 to 1000
"CC(C)n1nc(Nc2cc(C3CC3)n[nH]2)c2ccc(N(C)C)cc2c1=O [Example F-9, 4-(5-Cyclopropyl-2H-pyrazol-3-ylamino)-7-dimethylamino-2-isopropyl-2H-phthalazin-1-one]",100 to 10000,1 to 100
"Cc1cc(Nc2nn(C(C)C)c(=O)c3cc(C(=O)N4CCOCC4)ccc23)n[nH]1 [Example M-2, 2-Isopropyl-4-(5-methyl-1H-pyrazol-3-ylamino)-7-(morpholine-4-carbonyl)-2H-phthalazin-1-one]",100 to 10000,1 to 100
"Cc1cc(Nc2nn(C(C)C)c(=O)c3cc(OCCN4CCOCC4)ccc23)n[nH]1 [Example G-5, 2-Isopropyl-4-(5-methyl-1H-pyrazol-3-ylamino)-7-(2-morpholin-4-yl-ethoxy)-2H-phthalazin-1-one]",100 to 10000,7
"Cc1cc(Nc2nn(-c3ccc(C(F)(F)F)cc3)c(=O)c3ccccc23)n[nH]1 [Example A-25, 4-(5-Methyl-1H-pyrazol-3-ylamino)-2-(4-trifluoromethyl-phenyl)-2H-phthalazin-1-one]",100 to 10000,1 to 100
"Cc1cc(Nc2nn(-c3ccc(C(C)(C)C)cc3)c(=O)c3ccccc23)n[nH]1 [Example A-8, 2-(4-tert-Butyl-phenyl)-4-(5-methyl-1H-pyrazol-3-ylamino)-2H-phthalazin-1-one]",100 to 10000,100 to 1000
"Cc1cc(Nc2nn(Cc3ccccc3)c(=O)c3cc(N4CCOCC4)ccc23)n[nH]1 [Example F-4, 2-Benzyl-4-(5-methyl-1H-pyrazol-3-ylamino)-7-morpholino-2H-phthalazin-1-one]",100 to 10000,1 to 100
"Cc1cc(Nc2nn(C)c(=O)c3ccccc23)n[nH]1 [Example A-3, 2-Methyl-4-(5-methyl-1H-pyrazol-3-ylamino)-2H-phthalazin-1-one]",100 to 10000,100 to 1000
"Cc1cc(Nc2nn(-c3ccc(OC(F)(F)F)cc3)c(=O)c3ccccc23)n[nH]1 [Example W-2, 4-(5-Methyl-1H-pyrazol-3-ylamino)-2-(4-trifluoromethoxy-phenyl)-2H-phthalazin-1-one]",100 to 10000,1 to 100
"Cc1cc(Nc2nn(CC(O)c3ccccc3)c(=O)c3ccccc23)n[nH]1 (stereo not drawn) [Example E-13, 2-(2-Hydroxy-2-phenyl-ethyl)-4-(5-methyl-1H-pyrazol-3-ylamino)-2H-phthalazin-1-one]",10000 to 100000,100 to 1000
"Cc1cc(Nc2nn(Cc3ccc(N)cc3)c(=O)c3ccccc23)n[nH]1 [Example C-1, 2-(4-Aminobenzyl)-4-(5-methyl-1H-pyrazol-3-ylamino)-2H-phthalazin-1-one]",100 to 10000,1 to 100
"Cc1cc(Nc2nn(Cc3ccccc3)c(=O)c3ccccc23)n[nH]1 [Example A-2, 2-Benzyl-4-(5-methyl-1H-pyrazol-3-ylamino)-2H-phthalazin-1-one]",100 to 10000,65
"Cc1cc(Nc2nn(Cc3ccccn3)c(=O)c3ccccc23)[nH]n1 [Example A-22, 4-(5-Methyl-2H-pyrazol-3-ylamino)-2-pyridin-2-ylmethyl-2H-phthalazin-1-one]",100 to 10000,1 to 100
"Cc1cc(Nc2nn(-c3ccc(C(C)C)cc3)c(=O)c3ccccc23)[nH]n1 [Example P-1, 2-(4-Isopropyl-phenyl)-4-(5-methyl-2H-pyrazol-3-ylamino)-2H-phthalazin-1-one]",100 to 10000,1 to 100
"Cc1cc(Nc2nn(CC(F)(F)F)c(=O)c3ccccc23)n[nH]1 [Example A-5, 4-(5-Methyl-1H-pyrazol-3-ylamino)-2-(2,2,2-trifluoro-ethyl)-2H-phthalazin-1-one]",100 to 10000,1 to 100
"CC(=O)N1CCN(C(=O)c2ccc3c(Nc4cc(C)[nH]n4)nn(C(C)C)c(=O)c3c2)CC1 [Example M-7, 7-(4-Acetyl-piperazine-1-carbonyl)-2-isopropyl-4-(5-methyl-1H-pyrazol-3-ylamino)-2H-phthalazin-1-one]",10000 to 100000,1 to 100
"Cc1cc(Nc2nn(C(C)C)c(=O)c3cc(N(C)C(=O)OC(C)(C)C)ccc23)[nH]n1 [Example I-14, [3-Isopropyl-1-(5-methyl-2H-pyrazol-3-ylamino)-4-oxo-3,4-dihydro-phthalazin-6-yl]-methyl-carbamic acid tert-butyl ester]",100 to 10000,1 to 100
"CNC(=O)c1ccc(-n2nc(Nc3cc(C)[nH]n3)c3ccccc3c2=O)cc1 [Example S-1, N-Methyl-4-[4-(5-methyl-1H-pyrazol-3-ylamino)-1-oxo-1H-phthalazin-2-yl]-benzamide]",100 to 10000,100 to 1000
"COc1cccc(Cn2nc(Nc3cc(C)[nH]n3)c3ccccc3c2=O)c1 [Example A-12, 2-(3-Methoxy-benzyl)-4-(5-methyl-1H-pyrazol-3-ylamino)-2H-phthalazin-1-one]",100 to 10000,1 to 100
"Cc1cc(Nc2nn(C(C)C)c(=O)c3cc(N4CCN(C)CC4)ccc23)[nH]n1 [Example F-5, 2-Isopropyl-7-(4-methyl-piperazin-1-yl)-4-(5-methyl-2H-pyrazol-3-ylamino)-2H-phthalazin-1-one]",100 to 10000,1 to 100
"Cc1cc(Nc2nn(-c3ccc(N4CCCCC4)cc3)c(=O)c3ccccc23)[nH]n1 [Example V-1, 4-(5-Methyl-2H-pyrazol-3-ylamino)-2-(4-piperidin-1-yl-phenyl)-2H-phthalazin-1-one]",100 to 10000,1 to 100
